Experimental data as given in US9174935B2, “Transition metal complexes of bis[thiohydrazide amide] compounds” (Synta Pharmaceuticals Corp., priority 2008, dated 2015).

Key:
[1] = tested on: stage IV metastatic melanoma; details: in combination with paclitaxel, relative to patients treated with paclitaxel alone; cited from earlier work
[2] = tested on: M14 melanoma cells; experiment: Cytotoxicity in confluent M14 cells, cell viability by CCK8 assay; format: cell-based; details: Homo sapiens, M14, 48 h
Method: M14 melanoma cells were seeded at 50,000 cells per well of 96-well plate in 100 μl of Dulbecco's minimum essential medium (DMEM) supplemented with 10% fetal bovine serum. Cells were cultured at 37° C. under 5% CO2-95% air. After 16 hours of incubation, the test compound was added to the cell culture. The compound was first diluted in 100% dimethyl sulfoxide (DMSO) at 400-fold of final concentrations actually used in the assay. The DMSO solution was next diluted 20 fold with the culture medium, and then finally added to the assay wells at another 20-fold dilution. The assay medium included the test compound with concentrations as indicated with 0.25% DMSO. Cell viability was measured with a CCK8 assay (as described in the Technical Manual for Cell Counting Kit-8, Product #CK04-11, CK04-13 and CK04-20, Dojindo Molecular Technologies, Inc. MD; Tantular, I. S. et al. Tropical Medicine and International Health, 8(6), 569-574, 2003) in the last 15 min after a 48 h incubation with the test compound. Each bar of the figure expresses average percent inhibition against vehicle (0.25% DMSO) control (n=4). Error bars indicate standard deviation.

In the case of `CN(NC(=O)CC(=O)NN(C)C(=S)c1ccccc1)C(=S)c1ccccc1` [N-malonyl-bis(N′-methyl-N′-thiobenzoylhydrazide)], the time to progression [1] is listed as “increase the time to progression”.
In the case of `CN(NC(=O)CC(=O)NN(C)C(=S)c1ccccc1)C(=S)c1ccccc1` [A], the IC50 [2] is reported as > 12.5 µM.
